Reference: patent publication US9351978B2, “Neurogenesis screening method and uses thereof” (Mead Johnson Nutrition Company, priority 2012, dated 2016)

Legend:
hNSCs = test: neurogenesis of hNSCs, morphological changes under inverted fluorescent microscopy; assay type: cell-based, human; details: 72 hours
Experimental: Briefly, hNSCs were purchased from Millipore, Bellerica, Mass., U.S.A., with genetic modification to constitutively express green fluorescent protein (“GFP”). The hNSCs were cultured on laminin coated plates as recommended by the manufacturer. Both laminin and DEME/F12 were obtained from Millipore. Laminin was diluted with DMEM/F12 to 20 μg/mL. 10 ml of diluted laminin solution was added to 10 cm tissue culture dish. Then the culture dish was incubated in a 37° C., 5% CO2 incubator overnight. Just before use, the laminin solution was aspirated and rinsed once with sterile DPBS solution. hNSCs were cultured in the ReNcell NSC maintenance medium (Millipore) supplied with 20 ng/mL bFGF and 20 ng/mL EGF in a 37° C., 5% CO2 incubator. Medium was exchanged with fresh medium containing bFGF and EGF every other day thereafter. The cells reached 80% confluence 2 to 3 days after this step.
After hNSCs reach 80% confluence, hNSCs were ready for the differentiation experiment. Before seeding, a 96-well plate was freshly coated with 20 μg/mL laminin solution followed by a brief DPBS rinse as described above. Culture medium was removed carefully and hNSCs were dissociated within 3 ml Accutase (Millipore) in a 37° C., 5% CO2 incubator for 3 minutes. Then 5 ml of ReNcell NSC maintenance medium (Millipore) supplied with 20 ng/mL bFGF and 20 ng/mL EGF were added. The cell suspension was then transferred a sterile 15 ml conical tube and the cells were pelleted by the centrifugation at 300×g for 5 minutes. Supernatant was removed. 2 ml medium was then applied to the tube and hNSCs was resuspended thoroughly. The hNSCs were seeded on a 96-well plate at a density of 1×10^4 cell/ml (1000 cells/well, 100 μl/well).
After attaching to the culture surface, the culture medium was switched to serum-free differentiation medium in the presence of cholesterol, or DHA, or no treatment. […]

hADSCs = test: neurogenesis of hADSCs, neuronal morphology under phase contrast microscopy; assay type: cell-based, human
Experimental: hADSCs were purchased from Invitrogen, also known as Life Technologies, of Carlsbad, Calif., U.S.A., and were cultured as near confluent monolayers in 100 mm culture plates within a maintenance media consisting of Complete MesenPro RS medium with growth supplement and L-glutamine obtained from Invitrogen®. The process of culturing, passage, and seeding the hADSCs is described below.
The subculture of hADSCs was performed when cell culture reached confluence. To passage hADSCs, the following procedure is used: i) aspirate the Complete MesenPRO RS medium from the cells; ii) rinse the surface area of the cell layer with Dulbecco's phosphate buffered saline (DBPS) buffer by adding the DPBS to the side of the vessel opposite the attached cell layer and rocking the vessel back and forth several times; iii) remove the DPBS by aspiration and discard; iv) detach the cells by adding a sufficient volume of pre-warmed trypsin-EDTA solution without phenol red to cover the cell layer; v) incubate at 37° C. for approximately 7 minutes; vi) observe the cells under a microscope to determine if additional incubation is needed; vii) add 3 mL of the maintenance media to the plate, mix the cell suspension, add the suspension to a 15 mL centrifuge tube and centrifuge at 210 g for 5 minutes; viii) determine the total number of cells and percent viability using a hemacytometer; ix) add Complete MesenPRO RS medium to each vessel so that the final culture volume is 0.2 mL-0.5 mL per cm^2; x) seed the cells by adding the appropriate volume of cells to each vessel and incubate at 37° C., 5% CO2 and 90% humidity; and xi) three or four days after seeding, completely remove the medium and replace with an equal volume of Complete MesenPRO RS medium.
Before seeding the passaged hADSCs on fresh culture plates, the surfaces of the culture ware are washed with sterile DPBS solution three times, followed by multiple rinses with sterile water. The first layer of coating is poly-L-ornithine. […]

CC(C)CCC[C@@H](C)[C@H]1CC[C@H]2[C@@H]3CC=C4C[C@@H](O)CC[C@]4(C)[C@H]3CC[C@]12C [cholesterol]
morphology of hNSCs observed (hNSCs; 25 μM): shrinking cellular bodies, projecting neurities and were developing dendrites
neurogenesis of hNSCs compared to no treatment (hNSCs; 25 μM, serum-free differentiation medium): dramatically promoted neurogenesis
length of neurite outgrowth (hNSCs; cholesterol 25 μM compared with DHA at 20 μM): comparable to DHA
effect to enhance neurogenesis (neuronal morphology displayed by the hADSCs) (hADSCs; 5 μM, among the concentrations tested, phase contrast microscopy at 24, 48 and 96 hours, FIG. 2B): strongest effect to enhance neurogenesis
neurogenesis compared to the negative control (hADSCs; addition of cholesterol vs no treatment): promoted neurogenesis when compared to the negative control
morphology of treated hADSCs (outgrowth) (hADSCs; hADSCs treated with cholesterol, FIG. 2B): long outgrowth with some branching
